Test results reported in US7807439B2, “Staphylococcus aureus-specific detection media and identifying and/or counting method using same” (Biomerieux S.A., priority 2001, dated 2010).

Experiments:
Assay in all cases: Experiment 1: chromogenic α-glucosidase substrates in gelled medium, colony coloration
Conditions in all cases: substrate 100 mg/l
S. aureus 004 = assay type: cell-based, Staphylococcus aureus; parameters: key to I (intensity of coloration): 0 corresponds to a lack of activity; 0.1 corresponds to the presence of a trace of coloration; 0.5 corresponds to the presence of a very pale coloration; 1 corresponds to the presence of a clear coloration of weak intensity; 1.5 corresponds to the presence of a coloration which is intermediate between colorations 1 and 2; 2 corresponds to the presence of a true coloration of medium intensity; 2.5 corresponds to the presence of a coloration which is intermediate between colorations 2 and 3; 3 corresponds to the presence of an intense coloration; 3.5 corresponds to the presence of a coloration which is intermediate between colorations 3 and 4; 4 corresponds to the presence of a very intense coloration
Description: (§1) The α-glucosidase substrates are solubilized in dimethyl sulfoxide at a concentration of 200 g/l. A sufficient volume to obtain a final concentration of substrate of 100 mg/l is added to the four molten media. Microorganisms derived from the bioMérieux internal collection were seeded onto each one of the media, on their own as three dials, using a suspension at 0.5 MacFarland. However, results obtained with microorganisms derived from collections available to the public, ATCC or NCTC for example, would give identical results. The dishes were incubated at 37° C. for 48 hours. The colonies were examined visually after an incubation time of 24 and 48 hours. The coloration and also the intensity of this coloration were noted.
(§2) In table 2 below, as in the tables which will follow, C represents the coloration of the colonies after incubation, I represents the intensity of this coloration, the symbol “−” is synonymous with a lack of colour or intensity, and, finally, TI defines the incubation time. It should be noted that the intensity of the coloration is an arbitrary scale, but which is common to all the biological samples and all the media tested. This scale is valid for this experiment and also for all the experiments which will follow. It can be defined in the following way: • 0 corresponds to a lack of activity, • 0.1 corresponds to the presence of a trace of coloration, • 0.5 corresponds to the presence of a very pale coloration, • 1 corresponds to the presence of a clear coloration of weak intensity, • 1.5 corresponds to the presence of a coloration which is intermediate between colorations 1 and 2, • 2 corresponds to the presence of a true coloration of medium intensity, • 2.5 corresponds to the presence of a coloration which is intermediate between colorations 2 and 3, • 3 corresponds to the presence of an intense coloration • 3.5 corresponds to the presence of a coloration which is intermediate between colorations 3 and 4, • 4 corresponds to the presence of a very intense coloration.

S. aureus 070 = assay type: cell-based, Staphylococcus aureus; parameters: key to I (intensity of coloration): 0 corresponds to a lack of activity; 0.1 corresponds to the presence of a trace of coloration; 0.5 corresponds to the presence of a very pale coloration; 1 corresponds to the presence of a clear coloration of weak intensity; 1.5 corresponds to the presence of a coloration which is intermediate between colorations 1 and 2; 2 corresponds to the presence of a true coloration of medium intensity; 2.5 corresponds to the presence of a coloration which is intermediate between colorations 2 and 3; 3 corresponds to the presence of an intense coloration; 3.5 corresponds to the presence of a coloration which is intermediate between colorations 3 and 4; 4 corresponds to the presence of a very intense coloration
Description: as §1, §2

S. aureus 276 = assay type: cell-based, Staphylococcus aureus; parameters: key to I (intensity of coloration): 0 corresponds to a lack of activity; 0.1 corresponds to the presence of a trace of coloration; 0.5 corresponds to the presence of a very pale coloration; 1 corresponds to the presence of a clear coloration of weak intensity; 1.5 corresponds to the presence of a coloration which is intermediate between colorations 1 and 2; 2 corresponds to the presence of a true coloration of medium intensity; 2.5 corresponds to the presence of a coloration which is intermediate between colorations 2 and 3; 3 corresponds to the presence of an intense coloration; 3.5 corresponds to the presence of a coloration which is intermediate between colorations 3 and 4; 4 corresponds to the presence of a very intense coloration
Description: as §1, §2

S. intermedius 075 = assay type: cell-based, Staphylococcus intermedius; parameters: key to I (intensity of coloration): 0 corresponds to a lack of activity; 0.1 corresponds to the presence of a trace of coloration; 0.5 corresponds to the presence of a very pale coloration; 1 corresponds to the presence of a clear coloration of weak intensity; 1.5 corresponds to the presence of a coloration which is intermediate between colorations 1 and 2; 2 corresponds to the presence of a true coloration of medium intensity; 2.5 corresponds to the presence of a coloration which is intermediate between colorations 2 and 3; 3 corresponds to the presence of an intense coloration; 3.5 corresponds to the presence of a coloration which is intermediate between colorations 3 and 4; 4 corresponds to the presence of a very intense coloration; key to C (coloration of the colonies): —: the symbol “−” is synonymous with a lack of colour or intensity
Description: as §1, §2

S. saprophyticus 064 = assay type: cell-based, Staphylococcus saprophyticus; parameters: key to I (intensity of coloration): 0 corresponds to a lack of activity; 0.1 corresponds to the presence of a trace of coloration; 0.5 corresponds to the presence of a very pale coloration; 1 corresponds to the presence of a clear coloration of weak intensity; 1.5 corresponds to the presence of a coloration which is intermediate between colorations 1 and 2; 2 corresponds to the presence of a true coloration of medium intensity; 2.5 corresponds to the presence of a coloration which is intermediate between colorations 2 and 3; 3 corresponds to the presence of an intense coloration; 3.5 corresponds to the presence of a coloration which is intermediate between colorations 3 and 4; 4 corresponds to the presence of a very intense coloration; key to C (coloration of the colonies): —: the symbol “−” is synonymous with a lack of colour or intensity
Description: as §1, §2

S. epidermidis 009 = assay type: cell-based, Staphylococcus epidermidis; parameters: key to I (intensity of coloration): 0 corresponds to a lack of activity; 0.1 corresponds to the presence of a trace of coloration; 0.5 corresponds to the presence of a very pale coloration; 1 corresponds to the presence of a clear coloration of weak intensity; 1.5 corresponds to the presence of a coloration which is intermediate between colorations 1 and 2; 2 corresponds to the presence of a true coloration of medium intensity; 2.5 corresponds to the presence of a coloration which is intermediate between colorations 2 and 3; 3 corresponds to the presence of an intense coloration; 3.5 corresponds to the presence of a coloration which is intermediate between colorations 3 and 4; 4 corresponds to the presence of a very intense coloration; key to C (coloration of the colonies): —: the symbol “−” is synonymous with a lack of colour or intensity
Description: as §1, §2

S. xylosus 008 = assay type: cell-based, Staphylococcus xylosus; parameters: key to I (intensity of coloration): 0 corresponds to a lack of activity; 0.1 corresponds to the presence of a trace of coloration; 0.5 corresponds to the presence of a very pale coloration; 1 corresponds to the presence of a clear coloration of weak intensity; 1.5 corresponds to the presence of a coloration which is intermediate between colorations 1 and 2; 2 corresponds to the presence of a true coloration of medium intensity; 2.5 corresponds to the presence of a coloration which is intermediate between colorations 2 and 3; 3 corresponds to the presence of an intense coloration; 3.5 corresponds to the presence of a coloration which is intermediate between colorations 3 and 4; 4 corresponds to the presence of a very intense coloration; key to C (coloration of the colonies): —: the symbol “−” is synonymous with a lack of colour or intensity
Description: as §1, §2

C (coloration of the colonies) (S. aureus 004; TI 24 h) | I (intensity of coloration) (S. aureus 004; TI 24 h) | C (coloration of the colonies) (S. aureus 004; TI 48 h) | I (intensity of coloration) (S. aureus 004; TI 48 h) | C (coloration of the colonies) (S. aureus 070; TI 24 h) | I (intensity of coloration) (S. aureus 070; TI 24 h) | C (coloration of the colonies) (S. aureus 070; TI 48 h) | I (intensity of coloration) (S. aureus 070; TI 48 h) | C (coloration of the colonies) (S. aureus 276; TI 24 h) | I (intensity of coloration) (S. aureus 276; TI 24 h) | C (coloration of the colonies) (S. aureus 276; TI 48 h) | I (intensity of coloration) (S. aureus 276; TI 48 h) | C (coloration of the colonies) (S. intermedius 075; TI 24 h) | I (intensity of coloration) (S. intermedius 075; TI 24 h) | C (coloration of the colonies) (S. intermedius 075; TI 48 h) | I (intensity of coloration) (S. intermedius 075; TI 48 h) | C (coloration of the colonies) (S. saprophyticus 064; TI 24 h) | I (intensity of coloration) (S. saprophyticus 064; TI 24 h) | C (coloration of the colonies) (S. saprophyticus 064; TI 48 h) | I (intensity of coloration) (S. saprophyticus 064; TI 48 h) | Molecule | further results
pink | 1 | pink | 1 | pink | 2 | pink | 2 | pink | 1.5 | pink | 1.5 | — | 0 | pink | 0.5 | — | 0 | — | 0 | OC[C@H]1O[C@H](Oc2c[nH]c3cc(Cl)ccc23)[C@H](O)[C@@H](O)[C@@H]1O [Pink-a-GLU, 6-Chloro-3-indoxyl-α-D-glucoside] | C (coloration of the colonies) (S. epidermidis 009; TI 24 h): —; I (intensity of coloration) (S. epidermidis 009; TI 24 h): 0; C (coloration of the colonies) (S. epidermidis 009; TI 48 h): —; I (intensity of coloration) (S. epidermidis 009; TI 48 h): 0; C (coloration of the colonies) (S. xylosus 008; TI 24 h): —; I (intensity of coloration) (S. xylosus 008; TI 24 h): 0; C (coloration of the colonies) (S. xylosus 008; TI 48 h): pink; I (intensity of coloration) (S. xylosus 008; TI 48 h): 0.5
pink | 0.5 | pink | 2.5 | pink | 2 | pink | 2.5 | pink | 2 | pink | 2 | — | 0 | pink | 1.5 | — | 0 | — | 0 | OC[C@H]1O[C@H](Oc2c[nH]c3cc(Br)ccc23)[C@H](O)[C@@H](O)[C@@H]1O [Red “A” a-GLU, 6-Bromo-3-indoxyl-α-D-glucoside] | C (coloration of the colonies) (S. epidermidis 009; TI 24 h): —; I (intensity of coloration) (S. epidermidis 009; TI 24 h): 0; C (coloration of the colonies) (S. epidermidis 009; TI 48 h): —; I (intensity of coloration) (S. epidermidis 009; TI 48 h): 0; C (coloration of the colonies) (S. xylosus 008; TI 24 h): —; I (intensity of coloration) (S. xylosus 008; TI 24 h): 0; C (coloration of the colonies) (S. xylosus 008; TI 48 h): pink; I (intensity of coloration) (S. xylosus 008; TI 48 h): 2.5

Molecule | C (coloration of the colonies) (S. aureus 004; TI 24 h) | I (intensity of coloration) (S. aureus 004; TI 24 h) | C (coloration of the colonies) (S. aureus 004; TI 48 h) | I (intensity of coloration) (S. aureus 004; TI 48 h) | C (coloration of the colonies) (S. aureus 070; TI 24 h) | I (intensity of coloration) (S. aureus 070; TI 24 h) | C (coloration of the colonies) (S. aureus 070; TI 48 h) | I (intensity of coloration) (S. aureus 070; TI 48 h) | C (coloration of the colonies) (S. aureus 276; TI 24 h) | I (intensity of coloration) (S. aureus 276; TI 24 h) | C (coloration of the colonies) (S. aureus 276; TI 48 h) | I (intensity of coloration) (S. aureus 276; TI 48 h) | C (coloration of the colonies) (S. intermedius 075; TI 24 h) | I (intensity of coloration) (S. intermedius 075; TI 24 h) | C (coloration of the colonies) (S. intermedius 075; TI 48 h) | I (intensity of coloration) (S. intermedius 075; TI 48 h) | C (coloration of the colonies) (S. saprophyticus 064; TI 24 h) | I (intensity of coloration) (S. saprophyticus 064; TI 24 h) | C (coloration of the colonies) (S. saprophyticus 064; TI 48 h) | I (intensity of coloration) (S. saprophyticus 064; TI 48 h) | further results
5-bromo-4-chloro-3-indoxyl-α-D-glucoside [X-a-GLU] | turquoise | 1 | turquoise | 2 | turquoise | 1.5 | turquoise | 1.5 | turquoise | 2 | turquoise | 2 | turquoise | 0.5 | turquoise | 2 | — | 0 | turquoise | 0.5 | C (coloration of the colonies) (S. epidermidis 009; TI 24 h): —; I (intensity of coloration) (S. epidermidis 009; TI 24 h): 0; C (coloration of the colonies) (S. epidermidis 009; TI 48 h): turquoise; I (intensity of coloration) (S. epidermidis 009; TI 48 h): 1; C (coloration of the colonies) (S. xylosus 008; TI 24 h): turquoise; I (intensity of coloration) (S. xylosus 008; TI 24 h): 0.5; C (coloration of the colonies) (S. xylosus 008; TI 48 h): turquoise; I (intensity of coloration) (S. xylosus 008; TI 48 h): 1.5
